# Experimental data: patent US7879838B2, “Heteroaryl substituted pyrazinyl-piperazine-piperidines with CXCR3 antagonist activity” (Schering Corporation, priority 2005, dated 2011)
# pIC50: −log10 of the molar value.
# Target: T1, Human CXCR3 (N-delta 4) (Homo sapiens, UniProt P49682)
# T1 construct: CD8 leader (N); Flag tag; expressed in transfected cells; membranes prepared
# T1 sequence (P49682 5-368 limits assumed): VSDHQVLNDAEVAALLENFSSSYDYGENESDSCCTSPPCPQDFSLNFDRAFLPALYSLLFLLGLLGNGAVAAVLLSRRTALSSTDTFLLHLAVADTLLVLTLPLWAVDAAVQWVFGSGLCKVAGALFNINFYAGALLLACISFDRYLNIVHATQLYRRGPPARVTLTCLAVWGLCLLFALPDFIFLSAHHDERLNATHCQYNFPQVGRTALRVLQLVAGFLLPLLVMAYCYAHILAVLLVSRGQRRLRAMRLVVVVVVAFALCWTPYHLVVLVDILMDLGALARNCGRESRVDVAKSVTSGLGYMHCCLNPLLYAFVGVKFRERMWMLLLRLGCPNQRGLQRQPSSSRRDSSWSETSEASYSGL
# Experiment: Human CXCR3 (N-delta 4) scintillation proximity assay (SPA), [125I] IP-10 binding to Ba/F3-hCXCR3 membranes
# Settings: IC50 rating; 25 pM [125I] IP-10, membranes of Ba/F3 cells expressing human CXCR3 (N-delta 4)
# Text: The inventive compounds can readily be evaluated to determine activity at The CXCR3 receptors by known methods, such as, for example, Development of Human CXCR3 (N-delta 4) Binding Assay.
# Cloning and Expression of Human CXCR3 (N-delta 4):
# The DNA encoding human CXCR3 was cloned by PCR using human genomic DNA (Promega, Madison, Wis.) as a template. The PCR primers were designed based on the published sequence of human orphan receptor GPR9 (1) with incorporated restriction sites, a Kozak consensus sequence, CD8 leader and Flag tag. The PCR product was subcloned into the mammalian expression vector pME18Sneo, a derivative of the SR-alpha expression vector (designated as pME18Sneo-hCXCR3 (N-delta 4).
# IL-3-dependent mouse pro-B cells Ba/F3 were transfected by electroporation in 0.4 ml Dulbecco's PBS containing 4×10^6 cells with 20 μg of pME18Sneo-hCXCR3 (N-delta 4) plasmid DNA. Cells were pulsed at 400 Volts, 100 OHMs, 960 μFd. The transfected cells were under selection with 1 mg/ml G418 (Life Technologies, Gaithersburg, Md.). G418-resistant Ba/F3 clones were screened for CXCR3 expression by specific binding of [^125I] IP-10 (NEN Life Science Products, Boston, Mass.).
# Preparation of Ba/F3-hCXCR3 (N-delta 4) Membranes
# Ba/F3 cells expressing human CXCR3 (N-delta 4) were pelleted and resuspended in the lysis buffer containing 10 mM HEPES, pH 7.5 and Complete® protease inhibitors (1 tablet per 100 ml) (Boehringer Mannheim, Indianapolis, Ind.) at a cell density of 20×10^6 cells per ml. After 5 minutes incubation on ice, cells were transferred to 4639 cell disruption bomb (Parr Instrument, Moline, Ill.) and applied with 1,500 psi of nitrogen for 30 minutes on ice. Large cellular debris was removed by centrifugation at 1,000×g. Cell membrane in the supernatant was sedimented at 100,000×g. The membrane was resuspended in the lysis buffer supplemented with 10% sucrose and stored at −80° C. Total protein concentration of the membrane was determined by BCA method from Pierce (Rockford, Ill.).
# Human CXCR3 (N-delta 4) Scintillation Proximity Assay (SPA)
# For each assay point, 2 μg of membrane was preincubated for 1 hr with 300 μg wheat germ agglutinin (WGA) coated SPA beads (Amersham, Arlington Heights, Ill.) in the binding buffer (50 mM HEPES, 1 mM CaCl2, 5 mM MgCl2, 125 mM NaCl, 0.002% NaN3, 1.0% BSA) at room temperature. The beads were spun down, washed once, resuspended in the binding buffer and transferred to a 96-well Isoplate (Wallac, Gaithersburg, Md.). 25 pM of [^125I] IP-10 with tested compounds in a series of titration were added to start the reaction. After 3 hr reaction at room temperature, the amount of [^125I] IP-10 bound to the SPA beads was determined with a Wallac 1450 Microbeta counter.
# The Ki values for the various example compounds of the present invention are given in the afore-mentioned Table 1. From these values, it would be apparent to the skilled artisan that the compounds of the invention have excellent utility CXCR3 antagonists.
row,Compound,pIC50
1,CCOC(=O)NCc1nc(Cl)c(N2CCN(C3CCN(C(=O)c4ccc(Cl)nc4N)CC3)[C@@H](CC)C2)nc1N [compound 80],< 7.00
2,CC[C@H]1CN(c2nc(N)c(C(=O)NC3CC3)nc2Cl)CCN1C1CCN(Cc2c(C)nn(C)c2C)CC1 [compound 81],< 7.00
3,CC[C@H]1CN(c2nc(N)c(C(=O)NCC(C)(C)O)nc2Cl)CCN1C1CCN(C(=O)c2ccc(Cl)nc2N)CC1 [compound 82],< 7.00
4,CC[C@H]1CN(c2nc(N)c(C(=O)Nc3nccc(=O)[nH]3)nc2Cl)CCN1C1CCN(C(=O)c2ccc(Cl)nc2N)CC1 [compound 83],< 7.00
5,CC[C@H]1CN(c2nc(NCC3CC3)c(C(N)=O)nc2Cl)CCN1C1CCN(C(=O)c2ccc(Cl)nc2N)CC1 [compound 84],< 7.00
6,CC[C@H]1CN(c2nc(N)c(C(=O)NCCO)nc2Cl)CCN1C1CCN(Cc2ccc(Cl)nn2)CC1 [compound 85],< 7.00
7,CC[C@H]1CN(c2nc(N)c(C(=O)NNC(=O)C3CC3)nc2Cl)CCN1C1CCN(C(=O)c2ccc(Cl)nc2N)CC1 [compound 86],< 7.00
8,CC[C@H]1CN(c2nc(N)c(C(=O)N3CC(O)C3)nc2Cl)CCN1C1CCN(C(=O)c2ccc(Cl)nc2N)CC1 [compound 87],< 7.00
9,CC[C@H]1CN(c2nc(N)c(C(N)=O)nc2Cl)CCN1C1CCN(C(=O)c2ccc(-n3cccc3)nc2)CC1 [compound 88],< 7.00
10,CC[C@H]1CN(c2nc(N)c(C(=O)Nc3ncccc3O)nc2Cl)CCN1C1CCN(C(=O)c2ccc(Cl)nc2N)CC1 [compound 89],< 7.00
11,CC[C@H]1CN(c2nc(N)c(C(=O)N/C(N)=N/C#N)nc2Cl)CCN1C1CCN(C(=O)c2ccc(Cl)nc2N)CC1 [compound 90],< 7.00
12,CC[C@H]1CN(c2nc(N)c(C(=O)NCCO)nc2Cl)CCN1C1CCN(C(=O)c2ccc(Cl)nc2NC)CC1 [compound 91],< 7.00
13,CC[C@H]1CN(c2nc(N)c(C(=O)NCCO)nc2Cl)CCN1C1CCN(Cc2ccc(N3CCOCC3)nc2Cl)CC1 [compound 92],< 7.00
14,CC[C@H]1CN(c2nc(N)c(C(=O)NC3CCC(O)CC3)nc2Cl)CCN1C1CCN(C(=O)c2ccc(Cl)nc2N)CC1 (stereo partly drawn) [compound 93],< 7.00
15,CC[C@H]1CN(c2nc(N)c(C(=O)NCCO)nc2Cl)CCN1C1CCN(Cc2cc3ccccc3nc2Cl)CC1 [compound 94],< 7.00
16,CC[C@H]1CN(c2nc(N)c(C(=O)NC(=N)N3CCCC3)nc2Cl)CCN1C1CCN(C(=O)c2ccc(Cl)nc2N)CC1 [compound 95],< 7.00
17,CC[C@H]1CN(c2nc(N)c(C(N)=O)nc2Cl)CCN1C1CCN(C(=O)c2cc(F)c(N)nc2Cl)CC1 [compound 96],< 7.00
18,CC[C@H]1CN(c2nc(N)c(C(=O)NCCO)nc2Cl)CCN1C1CCN(Cc2ccc(NC3CC3)nc2Cl)CC1 [compound 97],< 7.00
19,CC[C@H]1CN(c2nc(N)c(C(=O)NCCCN(C)C)nc2Cl)CCN1C1CCN(C(=O)c2ccc(Cl)nc2N)CC1 [compound 98],< 7.00

# More lines, now with the values ahead:
row,pIC50,Compound
1,7.00 to 7.60,CC[C@H]1CN(c2nc(N)c(C(N)=O)nc2Cl)CCN1C1CCN(Cc2ccc(Cl)nc2)CC1 [compound 49]
2,7.00 to 7.60,CC[C@H]1CN(c2nc(N)c(C(=O)NCCNS(C)(=O)=O)nc2Cl)CCN1C1CCN(C(=O)c2ccc(Cl)nc2N)CC1 [compound 50]
3,7.00 to 7.60,CC[C@H]1CN(c2nc(N)c(C(=O)NC3CCOC3)nc2Cl)CCN1C1CCN(C(=O)c2ccc(Cl)nc2N)CC1 (stereo partly drawn) [compound 51]
4,7.00 to 7.60,CC[C@H]1CN(c2nc(N)c(C(=O)NCCN3CCCC3)nc2Cl)CCN1C1CCN(C(=O)c2ccc(Cl)nc2N)CC1 [compound 52]
5,7.00 to 7.60,CC[C@H]1CN(c2nc(N)c(C(=O)NCCS(C)(=O)=O)nc2Cl)CCN1C1CCN(Cc2ccc(Cl)nc2N)CC1 [compound 53]
6,7.00 to 7.60,CC[C@H]1CN(c2nc(N)c(C(=O)NC3CCS(=O)(=O)C3)nc2Cl)CCN1C1CCN(C(=O)c2ccc(Cl)nc2N)CC1 (stereo partly drawn) [compound 54]
7,7.00 to 7.60,CC[C@H]1CN(c2nc(N)c(C(=O)NC3CCOC3=O)nc2Cl)CCN1C1CCN(C(=O)c2ccc(Cl)nc2N)CC1 (stereo partly drawn) [compound 55]
8,7.00 to 7.60,CC[C@H]1CN(c2nc(N)c(C(N)=O)nc2Cl)CCN1C1CCN(C(=O)c2cc(F)c(Cl)nc2Cl)CC1 [compound 56]
9,7.00 to 7.60,CC[C@H]1CN(c2nc(N)c(C(=O)NCc3ccco3)nc2Cl)CCN1C1CCN(C(=O)c2ccc(Cl)nc2N)CC1 [compound 57]
10,7.00 to 7.60,CC[C@H]1CN(c2nc(NCc3ccc(F)c(F)c3)c(C(=O)OC)nc2Cl)CCN1C1CCN(C(=O)c2ccc(Cl)nc2N)CC1 [compound 60]
11,7.00 to 7.60,CC[C@H]1CN(c2nc(N)c(C(=O)NC3COCC3O)nc2Cl)CCN1C1CCN(C(=O)c2ccc(Cl)nc2N)CC1 (stereo partly drawn) [compound 61]
12,7.00 to 7.60,CC[C@H]1CN(c2nc(N)c(C(=O)NCc3cccs3)nc2Cl)CCN1C1CCN(C(=O)c2ccc(Cl)nc2N)CC1 [compound 62]
13,7.00 to 7.60,CC[C@H]1CN(c2nc(N)c(C(=O)NCCO)nc2Cl)CCN1C1CCN(C(=O)c2ccc(C(F)(F)F)nc2N)CC1 [compound 63]
14,7.00 to 7.60,CC[C@H]1CN(c2nc(N)c(C(=O)NCCN(C)C)nc2Cl)CCN1C1CCN(C(=O)c2ccc(Cl)nc2N)CC1 [compound 64]
15,7.00 to 7.60,CC[C@H]1CN(c2nc(N)c(C(=O)NN)nc2Cl)CCN1C1CCN(C(=O)c2ccc(Cl)nc2N)CC1 [compound 65]
16,7.00 to 7.60,CC[C@H]1CN(c2nc(N)c(C(=O)NCCO)nc2Cl)CCN1C1CCN(Cc2ccc(Cl)nc2N2CCOCC2)CC1 [compound 66]
17,7.00 to 7.60,CC[C@H]1CN(c2nc(N)c(C(=O)NCCS(C)(=O)=O)nc2Cl)CCN1C1CCN(C(=O)c2ccc(Cl)nc2N)CC1 [compound 67]
18,7.00 to 7.60,CC[C@H]1CN(c2nc(N)c(C(=O)NCCO)nc2Cl)CCN1C1CCN(C(=O)c2ccc(C(F)(F)F)nc2Cl)CC1 [compound 68]
19,7.00 to 7.60,CC[C@H]1CN(c2nc(N)c(C(=O)NN)nc2Cl)CCN1C1CCN(C(=O)c2ccc(-n3cccc3)nc2)CC1 [compound 69]
20,7.00 to 7.60,CC[C@H]1CN(c2nc(N)c(C(=O)NCCO)nc2Cl)CCN1C1CCN(Cc2ccc(C(F)(F)F)nc2)CC1 [compound 70]
21,7.00 to 7.60,CC[C@H]1CN(c2nc(N)c(C(=O)NN)nc2Cl)CCN1C1CCN(C(=O)c2cnc(Cl)c(Cl)c2)CC1 [compound 71]
22,< 7.00,CC[C@H]1CN(c2nc(N)c(C(=O)NCCO)nc2Cl)CCN1C1CCN(Cc2ccc(C#N)nc2)CC1 [compound 72]
23,< 7.00,CC[C@H]1CN(c2nc(N)c(C(=O)NN)nc2Cl)CCN1C1CCN(C(=O)c2cc(F)c(N)nc2Cl)CC1 [compound 73]
24,< 7.00,CC[C@H]1CN(c2nc(N)c(C(=O)NC3CC3)nc2Cl)CCN1C1CCN(Cc2cc(C)nn2C)CC1 [compound 74]
25,< 7.00,CC[C@H]1CN(c2nc(N)c(C(N)=O)nc2Cl)CCN1C1CCN(Cc2ccc(Cl)n3ccnc23)CC1 [compound 75]
26,< 7.00,CCOC(=O)C1(NC(=O)c2nc(Cl)c(N3CCN(C4CCN(C(=O)c5ccc(Cl)nc5N)CC4)[C@@H](CC)C3)nc2N)CC1 [compound 76]
27,< 7.00,CC[C@H]1CN(c2nc(NC(=O)N(C)C)c(C(=O)NC)nc2Cl)CCN1C1CCN(C(=O)c2ccc(Cl)nc2N)CC1 [compound 77]
28,< 7.00,CC[C@H]1CN(c2nc(N)c(C(=O)NC3CC3)nc2Cl)CCN1C1CCN(C(=O)c2cc(F)c(N)nc2Cl)CC1 [compound 78]
29,< 7.00,CC[C@H]1CN(c2nc(N)c(C(=O)NCCO)nc2Cl)CCN1C1CCN(C(=O)c2cnc(Cl)nc2C(F)(F)F)CC1 [compound 79]
